Patent US20210379009A1, “ANTIBACTERIAL AGENT AGAINST ENTEROBACTERIUM WHICH CONTAINS EQUOL AS ACTIVE INGREDIENT” (priority 2018, published 2021)

Assays:
Assay type in all cases: cell-based
[1] = test system: Clostridioides difficile (NAP1/027 strain); assay: Growth inhibition on Clostridioides difficile NAP1/027 strain (OD600); details: for inhibition of the growth of Clostridioides difficile versus control: FIG. 2
Description: Clostridioides difficile (NAP1/027 strain) was added to a medium containing equol in a concentration of 100 μg/mL, 75 μg/mL, 50 μg/mL, or 25 μg/mL (0 hour), and subsequently cultured to check the influence on the growth for 24 hours after the start of culture. The culture performed was totally under anaerobic conditions at 35° C.
Because equol dissolved in DMSO was used, a medium with addition only of DMSO was additionally subjected to measurement as a control.
The growth of the bacterium was examined by measuring the absorbance of each medium at 600 nm (OD600).
Equol is a final product generated from daidzin through daidzein and dihydrodaidzein. Inhibition of the growth of Clostridioides difficile by equol (100 μg/mL, 50 μg/mL), daidzein (50 μg/mL), and dihydrodaidzein (100 μg/mL, 50 μg/mL) was measured in the same manner as in Example 1.

[2] = test system: Escherichia coli (E. coli); assay: Growth inhibition on other bacterial species: Escherichia coli; details: 100 μg/mL; FIG. 4
[3] = test system: Clostridioides perfringens (C. perfringens (Clostridium perfringens)); details: 100 μg/mL; FIG. 4
[4] = test system: Bacteroides fragilis (B. fragilis); assay: Growth inhibition on other bacterial species: Bacteroides fragilis; details: 100 μg/mL
[5] = test system: Clostridioides difficile (NAP1/027 strain); assay: Influence on form of Clostridioides difficile (Gram staining); details: 100 μg/mL; after 8-day culture; FIG. 5
Description: The influence of equol on the form of Clostridioides difficile (NAP1/027 strain) was validated through staining of Clostridioides difficile with Gram staining under the action of equol (100 μg/mL) in the same manner as in Example 1.

[6] = test system: Clostridioides difficile; assay: Inhibition of sporulation of Clostridioides difficile (spore count); details: 100 μg/mL; added to medium grown to a saturated state; from day 2; FIG. 6
Description: To validate the influence of equol (100 μg/mL) on the sporulation of Clostridioides difficile, equol was added to a medium in which Clostridioides difficile had grown to a saturated state, and the number of spores formed was counted.

Row | Structure (SMILES) | inhibition of the growth of Clostridioides difficile versus control ([1]; 50 μg/mL) | inhibition of the growth of Clostridioides difficile versus control ([1]; 100 μg/mL) | concentration dependence of growth inhibition ([1]; equol 25 to 100 μg/mL, FIG. 1) | growth of Clostridioides difficile (OD600) versus control ([1]; equol 100, 75, 50 or 25 μg/mL, 24 hours, anaerobic, 35° C., DMSO control, FIG. 1) | influence on growth of Escherichia coli [2] | influence on growth of Clostridioides perfringens [3] | proliferation of Bacteroides fragilis ([4]; 52 hours of the test, FIG. 4) | viability of Bacteroides fragilis after transfer into a medium without equol ([4]; transferred at the end of 52 hours of the test) | form of cells (Gram staining) versus control [5] | number of spores formed versus control [6]
1 | Oc1ccc([C@H]2COc3cc(O)ccc3C2)cc1 (stereo in doubt) [equol, 4′,7-isoflavandiol] | inhibited the growth of Clostridioides difficile to the same degree | an even higher degree of inhibition than them | the inhibition depended on the concentration of equol | slower than that in the control | no influence was found | An influence was observed | completely no proliferation | only the growth was inhibited, without killing the bacterium | forms longer and thinner than those of cells in the control | few spores
2 | O=c1c(-c2ccc(O)cc2)coc2cc(O)ccc12 [daidzein, reference compound] | no clear difference from the control | – | – | – | – | – | – | – | – | –
3 | O=C1c2ccc(O)cc2OCC1c1ccc(O)cc1 (stereo not shown) [dihydrodaidzein, reference compound] | no clear difference from the control | inhibited the growth of Clostridioides difficile to the same degree | – | – | – | – | – | – | – | –
